According to the supplement of paper PMC10627819:

Experiments:
S. aureus Newman [1] = assay: fitness (endpoint OD595 vs no drug) (fraction); higher = more growth; conditions: one replicate
Method in brief: (§1)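 Bacterial fitness was scored as optical density at the stationary-phase transition relative to the robust mean of no-drug control wells. Scores are capped at 1. The growth data were OD595 readings every 30 min for 14 h at 37 °C, background-subtracted against the first reading, from 384-well plates inoculated at OD595 0.01 in TSB, LB Lennox or CY.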

B. subtilis 168 [2] = assay: as above
Method in brief: as §1

S. aureus DSM 20231 = assay: Bliss interaction score (quartile over a dose matrix) (fitness difference); higher = more antagonism (negative = synergy)
Method in brief: (§2)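 Growth in each well was taken as OD595 at entry into stationary phase. Dividing by the plate's robust no-drug mean and capping at 1 gave fitness, and single-drug fitness was inferred from the combination data. The Bliss score, observed minus product-expected fitness, is summarised by quartiles over technical, biological and donor/recipient replicates.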

S. aureus Newman [3] = assay: as above
Method in brief: as §2

S. pneumoniae D39V = assay: as above
Method in brief: as §2

B. subtilis 168 [4] = assay: as above
Method in brief: as §2
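Wherever Bliss interaction score (quartile over a dose matrix) is given: first quartile when negative (synergy) and third quartile when positive (antagonism).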

CO/N=C(\C(=O)N[C@@H]1C(=O)N2C(C(=O)O)=C(COC(N)=O)CS[C@H]12)c1ccco1 [Cefuroxime] + CN[C@@H]1[C@H](O)[C@H](NC)[C@H]2O[C@@]3(O)C(=O)C[C@@H](C)O[C@H]3O[C@@H]2[C@H]1O [Spectinomycin]
fitness
Conditions | first compound 0.04875 µg/mL | first compound 0.0975 µg/mL | first compound 0.195 µg/mL
B. subtilis 168 [2], partner 2 µg/mL | 0.717 | 0.667 | 0.55
B. subtilis 168 [2], partner 4 µg/mL | 0.799 | 0.645 | 0.569
S. aureus Newman [1], partner 4 µg/mL | 0.932 | 0.971 | 0.9
S. aureus Newman [1], partner 8 µg/mL | 0.943 | 0.96 | 0.877
S. aureus Newman [1], partner 16 µg/mL | 0.94 | 0.918 | 0.84

fitness, B. subtilis 168 [2], one replicate
Conditions | first compound 1.562 µg/mL | first compound 3.125 µg/mL | first compound 6.25 µg/mL
partner 2 µg/mL | 0.3 | 0.171 | 0.134
partner 4 µg/mL | 0.234 | 0.0263 | 0.0348
partner 8 µg/mL | 0.0211 | 0 | 0.0048

Conditions | Bliss interaction score
B. subtilis 168 [4] | -0.0976
S. aureus DSM 20231 | 0.116
S. aureus Newman [3] | 0.127
S. pneumoniae D39V | 0.0427

CO/N=C(\C(=O)N[C@@H]1C(=O)N2C(C(=O)O)=C(COC(N)=O)CS[C@H]12)c1ccco1 [Cefuroxime] + CN[C@@H]1[C@H](O[C@H]2[C@H](O[C@H]3[C@H](O)[C@@H](O)[C@H](N=C(N)N)[C@@H](O)[C@@H]3N=C(N)N)O[C@@H](C)[C@]2(O)C=O)O[C@@H](CO)[C@H](O)[C@H]1O [Streptomycin]
fitness
Conditions | first compound 0.04875 µg/mL | first compound 0.0975 µg/mL | first compound 0.195 µg/mL | first compound 1.562 µg/mL | first compound 3.125 µg/mL | first compound 6.25 µg/mL
B. subtilis 168 [2], partner 2 µg/mL | 0.722 | 0.664 | 0.6 | 0.132 | 0.088 | 0.0549
B. subtilis 168 [2], partner 4 µg/mL | – | – | 0.164 | 0.0266 | 0.015 | 0.0149
B. subtilis 168 [2], partner 8 µg/mL | 0.0543 | 0.0254 | 0.0361 | 0.032 | 0.0257 | 0.0148
S. aureus Newman [1], partner 2 µg/mL | 0.826 | 0.746 | 0.814 | – | – | –
S. aureus Newman [1], partner 4 µg/mL | 0.944 | ≥ 1 | 0.781 | – | – | –
S. aureus Newman [1], partner 8 µg/mL | 0.994 | 0.963 | 0.81 | – | – | –

Conditions | Bliss interaction score
B. subtilis 168 [4] | -0.123
S. aureus DSM 20231 | -0.357
S. aureus Newman [3] | 0.335
S. pneumoniae D39V | 0.0384

CO/N=C(\C(=O)N[C@@H]1C(=O)N2C(C(=O)O)=C(COC(N)=O)CS[C@H]12)c1ccco1 [Cefuroxime] + COc1c(N2C[C@@H]3CCCN[C@@H]3C2)c(F)cc2c(=O)c(C(=O)O)cn(C3CC3)c12 [Moxifloxacin]
fitness
Conditions | first compound 0.04875 µg/mL | first compound 0.0975 µg/mL | first compound 0.195 µg/mL | first compound 0.39 µg/mL | first compound 0.78 µg/mL
B. subtilis 168 [2], partner 0.0312 µg/mL | – | – | 0.0354 | 0.0276 | 0.0247
B. subtilis 168 [2], partner 0.0625 µg/mL | – | – | 0.0331 | 0.0172 | 0.0291
B. subtilis 168 [2], partner 0.125 µg/mL | – | – | 0.0376 | 0.0259 | 0.0192
S. aureus Newman [1], partner 0.0075 µg/mL | 0.631 | 0.593 | 0.595 | – | –
S. aureus Newman [1], partner 0.015 µg/mL | 0.439 | 0.4 | 0.445 | – | –
S. aureus Newman [1], partner 0.03 µg/mL | 0.034 | 0.0177 | 0.0236 | – | –

fitness, B. subtilis 168 [2], one replicate
Conditions | first compound 0.04875 µg/mL | first compound 0.0975 µg/mL | first compound 0.195 µg/mL | first compound 1.562 µg/mL | first compound 3.125 µg/mL | first compound 6.25 µg/mL
partner 0.0312 µg/mL | 0.0482 | 0.0451 | – | – | – | –
partner 0.0625 µg/mL | 0.0309 | 0.0348 | – | – | – | –
partner 0.125 µg/mL | 0.0185 | 0.0123 | – | – | – | –
partner 2 µg/mL | 0.0399 | 0.0244 | 0.0298 | 0.0359 | 0.0258 | 0.0141
partner 4 µg/mL | 0.0357 | 0.0206 | 0.0189 | 0.0269 | 0.0126 | 0.0118
partner 8 µg/mL | 0.0177 | 0.0063 | 0.0088 | 0.02 | 0.0184 | 0.011

Conditions | Bliss interaction score
B. subtilis 168 [4] | 0.0178
S. aureus DSM 20231 | -0.0502
S. aureus Newman [3] | -0.14
S. pneumoniae D39V | 0.0473

CO/N=C(\C(=O)N[C@@H]1C(=O)N2C(C(=O)O)=C(COC(N)=O)CS[C@H]12)c1ccco1 [Cefuroxime] + COc1ccc(C[C@H](N)C(=O)N[C@H]2[C@@H](O)[C@H](n3cnc4c(N(C)C)ncnc43)O[C@@H]2CO)cc1 [Puromycin]
fitness
Conditions | first compound 0.04875 µg/mL | first compound 0.0975 µg/mL | first compound 0.195 µg/mL
B. subtilis 168 [2], partner 0.39 µg/mL | 0.758 | 0.65 | 0.551
B. subtilis 168 [2], partner 0.78 µg/mL | 0.787 | 0.705 | 0.539
B. subtilis 168 [2], partner 1.56 µg/mL | 0.772 | 0.678 | 0.586
S. aureus Newman [1], partner 0.39 µg/mL | 0.925 | 0.95 | 0.938
S. aureus Newman [1], partner 0.78 µg/mL | 0.969 | 0.945 | 0.956
S. aureus Newman [1], partner 1.56 µg/mL | 0.951 | 0.98 | 0.983

fitness, B. subtilis 168 [2], one replicate
Conditions | first compound 1.562 µg/mL | first compound 3.125 µg/mL | first compound 6.25 µg/mL
partner 0.39 µg/mL | 0.348 | 0.268 | 0.25
partner 0.78 µg/mL | 0.369 | 0.288 | 0.286
partner 1.56 µg/mL | 0.362 | 0.312 | 0.253

Conditions | Bliss interaction score
B. subtilis 168 [4] | 0.1
S. aureus DSM 20231 | 0.127
S. aureus Newman [3] | 0.0321
S. pneumoniae D39V | 0.0887

CO/N=C(\C(=O)N[C@@H]1C(=O)N2C(C(=O)O)=C(COC(N)=O)CS[C@H]12)c1ccco1 [Cefuroxime] + COc1cccc2c1C(=O)c1c(O)c3c(c(O)c1C2=O)C[C@@](O)(C(=O)CO)C[C@@H]3O[C@H]1C[C@H](N)[C@H](O)[C@H](C)O1 [Doxorubicin]
fitness
Conditions | first compound 0.04875 µg/mL | first compound 0.0975 µg/mL | first compound 0.195 µg/mL
B. subtilis 168 [2], partner 0.625 µg/mL | 0.667 | 0.575 | 0.343
B. subtilis 168 [2], partner 1.25 µg/mL | 0.63 | 0.528 | 0.288
B. subtilis 168 [2], partner 2.5 µg/mL | 0.371 | 0.293 | 0.025
S. aureus Newman [1], partner 0.625 µg/mL | 0.891 | 0.873 | 0.784
S. aureus Newman [1], partner 1.25 µg/mL | 0.854 | 0.753 | 0.682
S. aureus Newman [1], partner 2.5 µg/mL | 0.735 | 0.617 | 0.659

fitness, B. subtilis 168 [2], one replicate
Conditions | first compound 0.39 µg/mL | first compound 0.78 µg/mL | first compound 1.562 µg/mL | first compound 3.125 µg/mL | first compound 6.25 µg/mL
partner 0.625 µg/mL | 0.264 | 0.272 | 0.365 | 0.208 | 0.142
partner 1.25 µg/mL | 0.25 | 0.17 | 0.0862 | 0.0711 | 0.0435
partner 2.5 µg/mL | 0.018 | 0.0243 | 0.0327 | 0.0359 | 0.0405

Conditions | Bliss interaction score
B. subtilis 168 [4] | -0.158
S. aureus DSM 20231 | 0.0859
S. aureus Newman [3] | -0.0601
S. pneumoniae D39V | -0.0401
